Where two headings read alike, the source gives them in different places.
Experiments:
Format in all cases: in vivo
[1] = test system: barnyardgrass (Echinochloa crus-galli); assay: Test B pre-/postemergence plant response
Method in brief: (§1)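 Seeds in loam–sand blend given preemergence soil spray; separately, plants at one- to two-leaf stage (2–10 cm) sprayed postemergence, compounds in non-phytotoxic solvent with surfactant. Injury rated visually versus untreated controls after ~10 days in greenhouse, 0 (no effect) to 100 (complete control).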

[2] = test system: corn (Zea mays); assay: Test B pre-/postemergence plant response
Method in brief: as §1

[3] = test system: giant foxtail (Setaria faberii); assay: Test B pre-/postemergence plant response
Method in brief: as §1

[4] = test system: Italian ryegrass (Lolium multiflorum); assay: Test B pre-/postemergence plant response
Method in brief: as §1

[5] = test system: ragweed (common ragweed, Ambrosia elatior); assay: Test B pre-/postemergence plant response
Method in brief: as §1

[6] = test system: pigweed (Amaranthus retroflexus); assay: Test B pre-/postemergence plant response
Method in brief: as §1

[7] = test system: wheat (Triticum aestivum); assay: Test B pre-/postemergence plant response
Method in brief: as §1

[8] = test system: kochia (Kochia scoparia); assay: Test B pre-/postemergence plant response
Method in brief: as §1

[9] = test system: ducksalad (Heteranthera limosa); assay: Test C flooded paddy test plant response; details: Flood, 250 g ai/ha, scale of 0 to 100 where 0 is no effect and 100 is complete control, 13 to 15 days
Method in brief: (§2)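 Visual injury ratings (0, no effect; 100, complete control) were assigned after 13 to 15 days in a greenhouse, comparing treated plants with controls. Compounds had been added straight into paddy water over 2-leaf-stage plants flooded to 3 cm.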

[10] = test system: barnyardgrass (Echinochloa crus-galli); assay: Test C flooded paddy test plant response; details: Flood, 250 g ai/ha, scale of 0 to 100 where 0 is no effect and 100 is complete control, 13 to 15 days
Method in brief: as §2

[11] = test system: small-flower umbrella sedge (Cyperus difformis); assay: Test C flooded paddy test plant response; details: Flood, 250 g ai/ha, scale of 0 to 100 where 0 is no effect and 100 is complete control, 13 to 15 days
Method in brief: as §2

[12] = test system: rice (Oryza sativa); assay: Test C flooded paddy test plant response; details: Flood, 250 g ai/ha, scale of 0 to 100 where 0 is no effect and 100 is complete control, 13 to 15 days
Method in brief: as §2

[13] = test system: galium (catchweed bedstraw, Galium aparine); assay: Test B postemergence plant response
Method in brief: (§3)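 Weeds grown in loam soil/sand pots were sprayed postemergence at 2 to 10 cm height, one- to two-leaf stage. After approximately 10 days in greenhouse, injury was rated visually against untreated controls on a 0 (no effect) to 100 (complete control) scale; dash means no test result.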

[14] = test system: blackgrass (Alopecurus myosuroides); assay: Test B postemergence plant response
Method in brief: as §3

[15] = Preemergence, 125 g ai/ha, 0 to 100 scale (0 no effect, 100 complete control)
[16] = 125 g ai/ha, postemergence, 0 to 100 scale, 0 no effect, 100 complete control
[17] = Postemergence, 500 g ai/ha, 0 to 100 scale (0 no effect, 100 complete control)
[18] = Preemergence, 500 g ai/ha, 0 to 100 scale where 0 is no effect and 100 is complete control

Row | Structure (SMILES) | Barnyardgrass plant response rating [1, 15] | Foxtail, Giant plant response rating [3, 15] | Plant response rating, Ryegrass, Italian [4, 16] | Plant response rating, Ryegrass, Italian [4, 17] | Ryegrass, Italian plant response rating [4, 15] | Plant response rating, Ryegrass, Italian [4, 18] | Plant response rating, Ragweed [5, 16] | Plant response rating, Ragweed [5, 17] | Ragweed plant response rating [5, 15] | Plant response rating, Ragweed [5, 18] | Pigweed plant response rating [6, 15] | Plant response rating, Kochia [8, 16] | Plant response rating, Kochia [8, 17] | Kochia plant response rating [8, 15] | Plant response rating, Kochia [8, 18] | Plant response rating, Galium [13, 16] | Plant response rating, Galium [13, 17] | Plant response rating, Blackgrass [14, 16] | Plant response rating, Blackgrass [14, 17] | also measured
1 | FC(F)(F)c1ccc(-c2c(Cl)cccc2Oc2ncc(Cl)cn2)nc1 [Compound 160, 5-chloro-2-[2-[5-(trifluoromethyl)-2-pyridinyl]-3-chlorophenoxy]pyrimidine] | 0 | 50 | 0 | 90 | 0 | 0 | 0 | 30 | 0 | 0 | 90 | 40 | 90 | 30 | 90 | 70 | 100 | 50 | 90 | pest or weed control at 125 g/ha ([1]; Echinochloa crus-galli, post-emergence, 240 h, 125 g ai/ha, postemergence, 0 to 100 scale, 0 no effect, 100 complete control, read-out: Plant response rating, Barnyardgrass): 0%; pest or weed control at 500 g/ha ([1]; Echinochloa crus-galli, post-emergence, 240 h, Postemergence, 500 g ai/ha, 0 to 100 scale (0 no effect, 100 complete control), read-out: Plant response rating, Barnyardgrass): 80%; pest or weed control at 500 g/ha ([1]; Echinochloa crus-galli, pre-emergence, 240 h, Preemergence, 500 g ai/ha, 0 to 100 scale where 0 is no effect and 100 is complete control, read-out: Plant response rating, Barnyardgrass): 80%; Corn plant response rating (crop injury, 0 = no effect, 100 = complete kill) at 125 g/ha ([2]; Zea mays, post-emergence, 240 h, 125 g ai/ha, postemergence, 0 to 100 scale, 0 no effect, 100 complete control): 30%; Corn plant response rating (crop injury, 0 = no effect, 100 = complete kill) at 500 g/ha ([2]; Zea mays, post-emergence, 240 h, Postemergence, 500 g ai/ha, 0 to 100 scale (0 no effect, 100 complete control)): 90%; pest or weed control at 125 g/ha ([3]; Setaria faberi, post-emergence, 240 h, 125 g ai/ha, postemergence, 0 to 100 scale, 0 no effect, 100 complete control, read-out: Plant response rating, Foxtail, Giant): 30%; pest or weed control at 500 g/ha ([3]; Setaria faberi, post-emergence, 240 h, Postemergence, 500 g ai/ha, 0 to 100 scale (0 no effect, 100 complete control), read-out: Plant response rating, Foxtail, Giant): 100%; pest or weed control at 500 g/ha ([3]; Setaria faberi, pre-emergence, 240 h, Preemergence, 500 g ai/ha, 0 to 100 scale where 0 is no effect and 100 is complete control, read-out: Plant response rating, Foxtail, Giant): 100%; pest or weed control at 125 g/ha ([6]; Amaranthus retroflexus, post-emergence, 240 h, 125 g ai/ha, postemergence, 0 to 100 scale, 0 no effect, 100 complete control, read-out: Plant response rating, Pigweed): 90%; pest or weed control at 500 g/ha ([6]; Amaranthus retroflexus, post-emergence, 240 h, Postemergence, 500 g ai/ha, 0 to 100 scale (0 no effect, 100 complete control), read-out: Plant response rating, Pigweed): 100%; pest or weed control at 500 g/ha ([6]; Amaranthus retroflexus, pre-emergence, 240 h, Preemergence, 500 g ai/ha, 0 to 100 scale where 0 is no effect and 100 is complete control, read-out: Plant response rating, Pigweed): 100%; plant injury at 125 g/ha ([7]; Triticum aestivum, post-emergence, 240 h, 125 g ai/ha, postemergence, 0 to 100 scale, 0 no effect, 100 complete control, read-out: Plant response rating, Wheat): 20%; plant injury at 500 g/ha ([7]; Triticum aestivum, post-emergence, 240 h, Postemergence, 500 g ai/ha, 0 to 100 scale (0 no effect, 100 complete control), read-out: Plant response rating, Wheat): 80%; pest or weed control at 250 g/ha ([9]; Heteranthera limosa, read-out: Ducksalad plant response rating): 0%; pest or weed control at 250 g/ha ([10]; Echinochloa crus-galli, read-out: Barnyardgrass plant response rating): 0%; pest or weed control at 250 g/ha ([11]; Cyperus difformis, read-out: Sedge, Umbrella plant response rating): 0%; plant injury at 250 g/ha ([12]; Oryza sativa, read-out: Rice plant response rating): 0%
2 | FC(F)(F)Cn1cnc(-c2ccccc2Oc2ncc(Cl)cn2)c1 [Compound 161] | 0 | 0 | 0 | 0 | 0 | 0 | 0 | 0 | 0 | 0 | 0 | 0 | 0 | 0 | 0 | 0 | 0 | 0 | 0 | Plant response rating, Barnyardgrass [1, 16]: 0; Plant response rating, Barnyardgrass [1, 17]: 0; Plant response rating, Barnyardgrass [1, 18]: 0; Plant response rating, Corn [2, 16]: 0; Plant response rating, Corn [2, 17]: 0; Plant response rating, Foxtail, Giant [3, 16]: 0; Plant response rating, Foxtail, Giant [3, 17]: 0; Plant response rating, Foxtail, Giant [3, 18]: 0; Plant response rating, Pigweed [6, 16]: 0; Plant response rating, Pigweed [6, 17]: 0; Plant response rating, Pigweed [6, 18]: 0; Plant response rating, Wheat [7, 16]: 0; Plant response rating, Wheat [7, 17]: 0; Ducksalad plant response rating [9]: 0; Barnyardgrass plant response rating [10]: 0; Sedge, Umbrella plant response rating [11]: 0; Rice plant response rating [12]: 0

Reference: US10131652B2, “Pyrimidinyloxy benzene derivatives as herbicides” (E. I. DU PONT DE NEMOURS AND COMPANY, priority 2014, dated 2018)
